Laboratory results taken from publication PMC6572996, “Silver(I) Complexes of the Pharmaceutical Agents Metronidazole and 4-Hydroxymethylpyridine: Comparison of Cytotoxic Profile for Potential Clinical Application” (Molecules, 2019).
pIC50: −log10 of the molar value. Where two headings read alike, the source gives them in different places.

Experiments:
[1] = Cytotoxicity over four assays in both cell lines; assay type: cell-based; conditions: mouse (Balb/c 3T3) and human (HepG2), Balb/c 3T3 clone A31 fibroblasts and HepG2 hepatoma cells, mostly greater than 50%, read-out: Viability of the cells at the highest concentrations used
Procedure: Data obtained from the measurement of the optical density in these assays were transformed to percentages in relation to the control group, considered to be 100% for the MTT, NRU, and TPC assays and 0% for the LDH assay (Figure 1).
The human hepatoma cell line (HepG2) was purchased from the American Type Culture Collection (ATCC HB-8065). These cells were cultured in Minimum Essential Medium Eagle (MEME) (ATCC). The murine fibroblast cell line (Balb/c 3T3 clone A31) (gift from Department of Swine Diseases of the National Veterinary Research Institute in Pulawy) was cultured in Dulbecco’s Modified Eagle’s Medium (DMEM) (ATCC). The media were supplemented with 10% BCS (Balb/c 3T3), 10% FBS (HepG2), 1% L-glutamine, and 1% antibiotic solution. The cells were maintained in 75 cm^2 cell culture flasks (Nunc, Roskilde, Denmark) in a humidified incubator, NuAire (Plymouth, MN, USA) at 37 °C, in an atmosphere of 5% CO2. The medium was refreshed every two or three days and the cells were trypsinized by 0.25% trypsin–0.02% EDTA after reaching 70–80% confluence. […]
The concentration ranges of compounds were chosen according to their solubility and their plasma level. […] Cytotoxicity was assessed after 72 h of exposure of the cells to the compounds. […]
The results of the tests were expressed as a mean ± SD. […] The IC50 values were calculated by GraphPad Prism 5 software (San Diego, CA, USA). […]

10T1/2 cell line = tested on: 10T1/2 cell line; parameters: method as in PMID 26828469; conditions: same observation as in this study; cited from earlier work
HepG2 cells = tested on: HepG2 cells; parameters: method as in doi:10.2478/v10213-012-0102-5; conditions: cited from earlier work
FaO cells = tested on: FaO cells; parameters: method as in doi:10.2478/v10213-012-0102-5; conditions: cited from earlier work
human fibroblasts (FMM1) = tested on: human fibroblasts (FMM1); parameters: method as in PMID 20857004; conditions: 50 µg/mL, 72 h treatment; cited from earlier work
MCF7 cells = tested on: MCF7 cells; parameters: method as in PMID 22832309; conditions: 48 h incubation, cited from earlier work
IEC-6 cells = tested on: IEC-6 cells; parameters: method as in PMID 20946968; conditions: 84.8 µM, 24 h exposure; cited from earlier work
MB157 (breast) cell line = tested on: MB157 (breast) cell line; parameters: method as in PMID 18615197; conditions: 72 h; cited from earlier work
A549 (lung) cells = conditions: 72 h exposure; cited from earlier work
H-ras 5RP7 cells = conditions: 24 h exposure; cited from earlier work
NIH/3T3 cells = conditions: 24 h exposure; cited from earlier work
[2] = tested on: murine fibroblasts (L929); parameters: method as in PMID 18364400; conditions: 24 h exposure; read-out: IC50, L929, MTT assay; cited from earlier work
[3] = tested on: murine fibroblasts (L929); parameters: method as in PMID 18364400; conditions: 24 h exposure; read-out: IC50, L929, NRU assay; cited from earlier work
HeLa cell lines = tested on: HeLa cell lines; parameters: method as in PMID 19836347; conditions: cited from earlier work

| Structure (SMILES) | viability at 72 h [1] | Cytotoxicity in 10T1/2 cell line (10T1/2 cell line) | Cytotoxicity in HepG2 cells (HepG2 cells) | Cytotoxicity in FaO cells (FaO cells) | Decrease of viability of human fibroblasts (FMM1) (human fibroblasts (FMM1)) | Inhibition of MCF7 cells (MCF7 cells; 250 µM) | Cytotoxicity in MCF7 cells (MCF7 cells; concentration range 2.5 to 250 µM) | Inhibition of viability of IEC-6 cells (IEC-6 cells) | pIC50 (MB157 (breast) cell line) | pIC50 (A549 (lung) cells) | pIC50 (H-ras 5RP7 cells) | pIC50 (NIH/3T3 cells) | pIC50 [2] | pIC50 [3] | pIC50 (HeLa cell lines) |
| --- | --- | --- | --- | --- | --- | --- | --- | --- | --- | --- | --- | --- | --- | --- | --- |
| Cc1ncc([N+](=O)[O-])n1CCO [Metronidazole] | > 50% | poorly cytotoxic | low cytotoxicity | low cytotoxicity | 40% | 30% | not cytotoxic | 8% |  |  |  |  |  |  |  |
| O=[N+]([O-])[O-].[Ag+] [Silver nitrate] |  |  |  |  |  |  |  |  | 5.30 | 4.87 | 5.17 | 4.91 | 5.45 | 5.59 | 5.54 |
